# Target: PIK3CB;PIK3CG;PIK3CD;PIK3CA (human) (UniProt P48736)
# Assay: Inhibition of PIK3CA/PIK3CB/PIK3CD/PIK3CG Kinase Activity
row,SMILES,IC50
1,CC(=O)N1CCN(c2cc(C(=O)O)nc3c(-c4cccc(O)c4)nc(N4CCOCC4)nc23)CC1,80 nM
2,COCCN(C)c1cc(C(=O)O)nc2c(-c3ccc4[nH]ccc4c3)nc(N3CCOCC3)nc12,169 nM
3,CN(CCO)c1cc(C(=O)O)nc2c(-c3cccc4[nH]ccc34)nc(N3CCOCC3)nc12,77 nM
4,O=C(O)c1ccc2nc(N3CCOCC3)nc(-c3ccc(O)cc3)c2n1,855 nM
5,CN(C)c1cc(C(=O)O)nc2c(-c3cccc(CO)c3)nc(N3CCOCC3)nc12,34 nM
6,O=C(O)c1cc(NCCO)c2nc(N3CCOCC3)nc(-c3cc(O)cc(F)c3)c2n1,64 nM
7,CN(C)c1cc(C(=O)O)nc2c(-c3cccc(C#N)c3)nc(N3CCOCC3)nc12,1100 nM
8,CN(C)c1cc(C(=O)O)nc2c(-c3ccc(O)cc3)nc(N3CCOCC3)nc12,350 nM
9,CN(CCO)c1cc(C(=O)O)nc2c(-c3ccc(F)cc3O)nc(N3CCOCC3)nc12,220 nM
10,CN(CCO)c1cc(C(=O)O)nc2c(-c3cccc(F)c3O)nc(N3CCOCC3)nc12,10 nM
11,COc1cccc(-c2nc(N3CCOCC3)nc3c(Cl)cc(C(=O)O)nc23)c1,1080 nM
12,CN(C)c1cc(C(=O)O)nc2c(-c3ccccc3O)nc(N3CCOCC3)nc12,23 nM
13,CS(=O)(=O)c1cc(C(=O)O)nc2c(-c3ccc(O)c(F)c3)nc(N3CCOCC3)nc12,335 nM
14,O=C(O)c1cc(-c2cccc3ccccc23)c2nc(N3CCOCC3)nc(-c3cccc(O)c3)c2n1,57 nM
15,O=C(O)c1cc(NCCO)c2nc(N3CCOCC3)nc(-c3cccc(O)c3)c2n1,75 nM
16,CNc1cc(C(=O)O)nc2c(-c3ccc(F)cc3O)nc(N3CCOCC3)nc12,412 nM
17,CN(C)c1cc(C(=O)O)nc2c(-c3ccc(F)c(CO)c3)nc(N3CCOCC3)nc12,329 nM
18,COCCNc1cc(C(=O)O)nc2c(-c3ccc(CO)cc3)nc(N3CCOCC3)nc12,346 nM

row,SMILES,IC50
1,CN(CCO)c1cc(C(=O)O)nc2c(-c3ccc(F)c(CO)c3)nc(N3CCOCC3)nc12,303 nM
2,COCCN(C)c1cc(C(=O)O)nc2c(-c3cccc(F)c3O)nc(N3CCOCC3)nc12,9 nM
3,O=C(O)c1ccc2nc(N3CCOCC3)nc(-c3cccc(O)c3)c2n1,63 nM
4,CN(C)c1cc(C(=O)O)nc2c(-c3ccc(F)cc3O)nc(N3CCOCC3)nc12,83 nM
5,COCCN(C)c1cc(C(=O)O)nc2c(-c3ccc(O)cc3)nc(N3CCOCC3)nc12,290 nM
6,COCc1cccc(-c2nc(N3CCOCC3)nc3c(NCCO)cc(C(=O)O)nc23)c1,2490 nM
7,COCCNc1cc(C(=O)O)nc2c(-c3ccc(O)cc3)nc(N3CCOCC3)nc12,504 nM
8,CN(C)CCN(C)c1cc(C(=O)O)nc2c(-c3cc(F)ccc3O)nc(N3CCOCC3)nc12,564 nM
9,O=C(O)c1cc(NCCO)c2nc(N3CCOCC3)nc(-c3cccc(F)c3O)c2n1,43 nM
10,CN(C)c1cc(C(=O)O)nc2c(-c3cccc4[nH]ccc34)nc(N3CCOCC3)nc12,132 nM
11,COCCOc1cc(C(=O)O)nc2c(-c3ccc(O)cc3)nc(N3CCOCC3)nc12,2520 nM
12,COCCN(C)c1cc(C(=O)O)nc2c(-c3cc(F)cc(F)c3)nc(N3CCOCC3)nc12,1290 nM
13,CN(C)c1cc(C(=O)O)nc2c(-c3cc(F)ccc3O)nc(N3CCOCC3)nc12,66 nM
14,CNc1cc(C(=O)O)nc2c(-c3cc(F)ccc3O)nc(N3CCOCC3)nc12,304 nM
15,CNc1cc(C(=O)O)nc2c(-c3cccc(F)c3O)nc(N3CCOCC3)nc12,48 nM
16,Cc1cc(C(=O)O)nc2c(-c3cccc(O)c3)nc(N3CCOCC3)nc12,225 nM
17,CN(CCO)c1cc(C(=O)O)nc2c(-c3cccc(CO)c3)nc(N3CCOCC3)nc12,74 nM

# Further lines, results first:
row,IC50,SMILES
1,28 nM,COCCN(C)c1cc(C(=O)O)nc2c(-c3cccc(O)c3)nc(N3CCOCC3)nc12
2,108 nM,O=C(O)c1cc(Cl)c2nc(N3CCOCC3)nc(-c3cccc(O)c3)c2n1
3,1850 nM,COCc1cccc(-c2nc(N3CCOCC3)nc3c(N(C)CCO)cc(C(=O)O)nc23)c1
4,732 nM,O=C(O)c1cc(NCCO)c2nc(N3CCOCC3)nc(-c3ccc(O)cc3)c2n1
5,62 nM,COCCN(C)c1cc(C(=O)O)nc2c(-c3ccc(F)cc3O)nc(N3CCOCC3)nc12
6,780 nM,CNc1cc(C(=O)O)nc2c(-c3cccc4[nH]ccc34)nc(N3CCOCC3)nc12
7,73 nM,COCCNc1cc(C(=O)O)nc2c(-c3cc(F)ccc3O)nc(N3CCOCC3)nc12
8,1830 nM,COCCNc1cc(C(=O)O)nc2c(-c3cccc(COC)c3)nc(N3CCOCC3)nc12
9,137 nM,CN(C)CCN(C)c1cc(C(=O)O)nc2c(-c3cccc4[nH]ccc34)nc(N3CCOCC3)nc12
10,15 nM,CS(=O)(=O)c1cc(C(=O)O)nc2c(-c3cc(O)cc(F)c3)nc(N3CCOCC3)nc12
11,19 nM,COCCN(C)c1cc(C(=O)O)nc2c(-c3cc(O)cc(F)c3)nc(N3CCOCC3)nc12
12,30 nM,CS(=O)(=O)N1CCN(c2cc(C(=O)O)nc3c(-c4ccccc4)nc(N4CCOCC4)nc23)CC1
13,546 nM,COCCN(C)c1cc(C(=O)O)nc2c(-c3ccc(CO)cc3)nc(N3CCOCC3)nc12
14,89 nM,COCCNc1cc(C(=O)O)nc2c(-c3ccc(F)cc3O)nc(N3CCOCC3)nc12
15,144 nM,CNc1cc(C(=O)O)nc2c(-c3cccc(O)c3)nc(N3CCOCC3)nc12
16,8 nM,COCCN(C)c1cc(C(=O)O)nc2c(-c3cccc(CO)c3)nc(N3CCOCC3)nc12

row,IC50,SMILES
1,82 nM,O=C(O)c1cc(NCCO)c2nc(N3CCOCC3)nc(-c3ccccc3O)c2n1
2,15 nM,CS(=O)(=O)N1CCN(c2cc(C(=O)O)nc3c(-c4cccc(O)c4)nc(N4CCOCC4)nc23)CC1
3,139 nM,CS(=O)(=O)c1cc(C(=O)O)nc2c(-c3cc(F)ccc3O)nc(N3CCOCC3)nc12
4,5050 nM,COCc1cccc(-c2nc(N3CCOCC3)nc3c(N(C)C)cc(C(=O)O)nc23)c1
5,26 nM,CS(=O)(=O)c1cc(C(=O)O)nc2c(-c3cccc(F)c3O)nc(N3CCOCC3)nc12
6,24 nM,COc1ccccc1-c1cc(C(=O)O)nc2c(-c3cccc(O)c3)nc(N3CCOCC3)nc12
7,93 nM,COCCOc1cc(C(=O)O)nc2c(-c3cc(O)cc(F)c3)nc(N3CCOCC3)nc12
8,459 nM,CN(C)CCN(C)c1cc(C(=O)O)nc2c(-c3ccccc3O)nc(N3CCOCC3)nc12
9,678 nM,O=C(O)c1cc(Cl)c2nc(N3CCOCC3)nc(-c3ccccc3)c2n1
10,27 nM,O=C(O)c1cc(NCCO)c2nc(N3CCOCC3)nc(-c3cccc(CO)c3)c2n1
11,4490 nM,COc1cccc(-c2nc(N3CCOCC3)nc3ccc(C(=O)O)nc23)c1
12,936 nM,Cc1cc(O)ccc1-c1nc(N2CCOCC2)nc2c(N(C)CCO)cc(C(=O)O)nc12
13,128 nM,COCCNc1cc(C(=O)O)nc2c(-c3cccc4[nH]ccc34)nc(N3CCOCC3)nc12
14,18 nM,COCCNc1cc(C(=O)O)nc2c(-c3cccc(F)c3O)nc(N3CCOCC3)nc12
15,255 nM,COCCOc1cc(C(=O)O)nc2c(-c3cccc(O)c3)nc(N3CCOCC3)nc12
